Values after ≈ are worked out from the molar mass of the structure shown.
Experiments:
murine thymocytes = test: Effects on the mitogenic response by murine thymocytes (Con A stimulation, 3H-TdR uptake); format: cell-based, BALB/c murine; conditions: Mus musculus, Thymocyte; BALB/c thymocytes, Con A 5 μg/ml, 48 hours, 3H-TdR uptake; read-out: IC50 value, a (mitogenic response of murine thymocytes)
[1] = system: murine mixed lymphocyte reaction (spleen cells of BALB/c and C57BL/6 mice); test: Effects on the murine mixed lymphocyte reaction (3H-TdR uptake); format: cell-based; conditions: Mus musculus, BALB/c + C57BL/6 spleen cells, 48 hours, read-out: IC50 value, b (murine mixed lymphocyte reaction)
[2] = system: IgM antibody production from murine spleen B cells; test: Effects on the IgM antibody production from murine spleen cells (LPS + IL4); format: cell-based, BALB/c mouse; conditions: Mus musculus, B-cell, 168 h; spleen B cells, LPS 10 μg/ml, IL4 100 U/ml, 7 days, enzyme-immunoassay; read-out: IC50 value, IgM antibody production

Row | SMILES | IC50 (murine thymocytes) [µg/mL] | IC50 [1] [µg/mL] | IC50 [2] [µg/mL]
1 | C#C[C@]1(O)C=C[C@H]2CO[C@@H]1O2 [Compound 29] | 35 (≈ 230 µM) | > 1000 | > 1000
2 | O[C@H]1C=C[C@H]2CO[C@@H]1O2 [Compound 1, 1,6-anhydro-3,4-dideoxy-β-D-threo-hex-3-enopyranose] | 15 (≈ 117 µM) | 11 | 25
3 | O=C(O[C@H]1C=C[C@H]2CO[C@@H]1O2)c1ccco1 [Compound 17, 1,6-anhydro-3,4-dideoxy-2-O-(2-furancarbonyl)-β-D-threo-hex-3-enopyranose] | 190 (≈ 855 µM) | 270 | 100

Reference: patent US5380834A, “Immuno-suppressive agent” (Ishihara Sangyo Kaisha Ltd., priority 1992, dated 1995)
